Results published in patent publication US7534809B2, “Phospho-indoles as HIV inhibitors” (priority 2004, dated 2009).
pEC50: −log10 of the molar value. Where two headings read alike, the source gives them in different places.

Experiments:
[1] = test system: HIV mutant strain K103N/Y181C; assay: Cell-based assay using BH-10 cells, K103N/Y181C mutant
Procedure: (§1) In a typical embodiment, the NNRTIs display an EC50 in a mutant HIV strain of less than approximately 5, 2.5, 1 or 0.1 μM concentration. The degree of cross-resistance against a drug resistant strain of HIV is measured by assessing the EC50 of the desired oxo-pyrimidine compound in the target mutated, i.e., drug resistant, virus.
(§2) The degree of cross-resistance against a drug resistant strain of HIV can easily be measured by assessing the EC50 of the desired indole in the target mutated i.e., drug resistant, virus.

HIV mutant strain Y181C = assay: Cell-based assay using BH-10 cells, Y181C mutant
Procedure: as §1, §2

HIV BH-10 WT = assay: Cell-based assay using BH-10 cells, wild type
[2] = BH-10 cells, K103N/Y181C mutant, read-out: EC50 K103N/Y181C
[3] = BH-10 cells, Y181C mutant, read-out: EC50 Y181C
[4] = BH-10 cells, wild type, read-out: EC50 WT///B
[5] = Human immunodeficiency virus 1, read-out: EC50 K103N/Y181C, BH-10 cells, K103N/Y181C mutant
[6] = Human immunodeficiency virus 1, read-out: EC50 Y181C, BH-10 cells, Y181C mutant
[7] = Human immunodeficiency virus 1, read-out: EC50 WT///B, BH-10 cells, wild type
[8] = read-out: EC50 K103N/Y181C, BH-10 cells, K103N/Y181C mutant

SMILES	pEC50 [1, 2]	pEC50 (HIV mutant strain Y181C; [3])	pEC50 (HIV BH-10 WT; [4])	pEC50 [1, 5]	pEC50 (HIV mutant strain Y181C; [6])	pEC50 (HIV BH-10 WT; [7])	pEC50 [1, 8]	pEC50 (HIV BH-10 WT; read-out: EC50 WT///B, BH-10 cells, wild type)
COP(=O)(c1cc(C)cc(C)c1)c1c(C(=O)NCc2c(F)ccc(F)c2F)[nH]c2ccc(Cl)cc12 (centres unmarked) [CONHCH2(Ph: 2,3,6-tri-F)]	7.64	7.77	7.75	–	–	–	–	–
CCOP(=O)(c1cc(C)ccc1C)c1c(C(N)=O)[nH]c2ccc(Cl)cc12 (centres unmarked) [Compound 6aa]	8.80	8.72	9.70	–	–	–	–	–
CCOP(=O)(c1cccc(C)c1)c1c(C(N)=O)[nH]c2ccc(Cl)cc12 (centres unmarked) [Compound 6ab]	–	–	–	7.71	7.46	9.30	–	–
CCOP(=O)(c1cccc(F)c1)c1c(C(N)=O)[nH]c2ccc(Cl)cc12 (centres unmarked) [Compound 6ae]	7.96	7.21	9.30	–	–	–	–	–
CCOP(=O)(c1ccccc1CC)c1c(C(N)=O)[nH]c2ccc(Cl)cc12 (centres unmarked) [Compound 6ah]	–	–	–	6.51	6.68	7.79	–	–
CCOP(=O)(c1ccccc1Cl)c1c(C(N)=O)[nH]c2ccc(Cl)cc12 (centres unmarked) [Compound 6ai]	–	–	–	7.76	6.84	8.92	–	–
CCOP(=O)(c1cccc(Cl)c1)c1c(C(N)=O)[nH]c2ccc(Cl)cc12 (centres unmarked) [Compound 6d]	–	–	–	7.80	7.78	8.85	–	–
CCOP(=O)(c1cccc(CC)c1)c1c(C(N)=O)[nH]c2ccc(Cl)cc12 (centres unmarked) [Compound 6e]	–	–	–	8.92	7.47	8.70	–	–
CCOP(=O)(c1cccc(C(F)(F)F)c1)c1c(C(N)=O)[nH]c2ccc(Cl)cc12 (centres unmarked) [Compound 6f]	–	–	–	6.30	–	8.17	–	–
CCOP(=O)(c1cccc(C#N)c1)c1c(C(N)=O)[nH]c2ccc(Cl)cc12 (centres unmarked) [Compound 6g]	–	–	–	6.71	–	8.02	–	–
CCOP(=O)(c1cccc(C(C)C)c1)c1c(C(N)=O)[nH]c2ccc(Cl)cc12 (centres unmarked) [Compound 6i]	–	–	–	8.46	8.04	8.92	–	–
CCOP(=O)(c1cccc(OC)c1)c1c(C(N)=O)[nH]c2ccc(Cl)cc12 (centres unmarked) [Compound 6m]	–	–	–	7.18	–	8.64	–	–
CCOP(=O)(c1cccc2ccccc12)c1c(C(N)=O)[nH]c2ccc(Cl)cc12 (centres unmarked) [Compound 6t]	–	–	–	< 5.90	< 5.90	7.49	–	–
CCOP(=O)(c1ccc(C)cc1)c1c(C(N)=O)[nH]c2ccc(Cl)cc12 (centres unmarked) [Compound 6w]	–	–	–	< 5.90	–	8.14	–	–
CCOP(=O)(c1ccccc1C)c1c(C(N)=O)[nH]c2ccc(Cl)cc12 (centres unmarked) [Compound 6x]	6.35	–	7.67	–	–	–	–	–
CCOP(=O)(c1ccc(C)c(C)c1)c1c(C(N)=O)[nH]c2ccc(Cl)cc12 (centres unmarked) [Compound 6y]	< 5.90	–	8.59	–	–	–	–	–
COP(=O)(c1ccccc1)c1c(C(N)=O)[nH]c2ncc(Cl)cc12 (centres unmarked) [Compound 7-Aza]	6.71	< 5.90	7.83	–	–	–	–	–
COP(=O)(c1cc(C)cc(C)c1)c1c(C(N)=O)[nH]c2ccc(Cl)cc12 (centres unmarked) [Compound 7a]	–	–	–	9.00	8.92	9.70	–	–
COP(=O)(c1cccc(C2CC2)c1)c1c(C(N)=O)[nH]c2ccc(Cl)cc12 (centres unmarked) [Compound 7aa]	–	–	–	8.43	8.15	8.66	–	–
COP(=O)(c1cccc(C)c1)c1c(C(N)=O)[nH]c2ccc(Cl)cc12 (centres unmarked) [Compound 7ac]	8.26	8.02	8.89	–	–	–	–	–
COP(=O)(c1ccccc1C)c1c(C(N)=O)[nH]c2ccc(Cl)cc12 (centres unmarked) [Compound 7ad]	8.33	7.49	8.89	–	–	–	–	–
COP(=O)(c1ccc(C)c(C)c1)c1c(C(N)=O)[nH]c2ccc(Cl)cc12 (centres unmarked) [Compound 7ae]	–	–	–	8.96	7.95	9.30	–	–
COP(=O)(c1cc(F)cc(F)c1)c1c(C(N)=O)[nH]c2ccc(Cl)cc12 (centres unmarked) [Compound 7aj]	–	–	–	8.04	7.75	9.22	–	–

SMILES	pEC50 [1, 2]	pEC50 (HIV mutant strain Y181C; [3])	pEC50 (HIV BH-10 WT; [4])	pEC50 [1, 5]	pEC50 (HIV mutant strain Y181C; [6])	pEC50 (HIV BH-10 WT; [7])	pEC50 [1, 8]	pEC50 (HIV BH-10 WT; read-out: EC50 WT///B, BH-10 cells, wild type)
COP(=O)(c1ccc(F)cc1)c1c(C(N)=O)[nH]c2ccc(Cl)cc12 (centres unmarked) [Compound 7ak]	–	–	–	6.33	7.46	8.26	–	–
COP(=O)(c1ccccc1F)c1c(C(N)=O)[nH]c2ccc(Cl)cc12 (centres unmarked) [Compound 7al]	8.59	7.86	9.30	–	–	–	–	–
CCc1ccccc1P(=O)(OC)c1c(C(N)=O)[nH]c2ccc(Cl)cc12 (centres unmarked) [Compound 7an]	–	–	–	8.89	7.30	8.54	–	–
COP(=O)(c1ccccc1Cl)c1c(C(N)=O)[nH]c2ccc(Cl)cc12 (centres unmarked) [Compound 7ao]	–	–	–	8.85	8.70	9.40	–	–
COP(=O)(c1cccc(COCc2ccccc2)c1)c1c(C(N)=O)[nH]c2ccc(Cl)cc12 (centres unmarked) [Compound 7ap]	–	–	–	< 5.90	5.94	6.82	–	–
COP(=O)(c1cccc(CO)c1)c1c(C(N)=O)[nH]c2ccc(Cl)cc12 (centres unmarked) [Compound 7aq]	–	–	–	6.90	7.08	8.60	–	–
COP(=O)(c1cccc(C(C)(C)C)c1)c1c(C(N)=O)[nH]c2ccc(Cl)cc12 (centres unmarked) [Compound 7ar]	–	–	–	7.51	7.71	8.54	–	–
COP(=O)(c1cc(C)cc(C#N)c1)c1c(C(N)=O)[nH]c2ccc(Cl)cc12 (centres unmarked) [Compound 7as]	–	–	–	8.54	8.32	8.85	–	–
COP(=O)(c1cc(F)cc(C#N)c1)c1c(C(N)=O)[nH]c2ccc(Cl)cc12 (centres unmarked) [Compound 7at]	7.99	7.66	8.24	–	–	–	–	–
COP(=O)(c1cc(Cl)cc(Cl)c1)c1c(C(N)=O)[nH]c2ccc(Cl)cc12 (centres unmarked) [Compound 7b]	–	–	–	7.77	8.28	8.92	–	–
COP(=O)(c1cccc(Cl)c1)c1c(C(N)=O)[nH]c2ccc(Cl)cc12 (centres unmarked) [Compound 7c]	–	–	–	8.59	8.06	9.40	–	–
CCc1cccc(P(=O)(OC)c2c(C(N)=O)[nH]c3ccc(Cl)cc23)c1 (centres unmarked) [Compound 7d]	–	–	–	8.85	8.19	9.22	–	–
COP(=O)(c1cccc(C(F)(F)F)c1)c1c(C(N)=O)[nH]c2ccc(Cl)cc12 (centres unmarked) [Compound 7e]	–	–	–	8.92	8.49	9.05	–	–
COP(=O)(c1cccc(C#N)c1)c1c(C(N)=O)[nH]c2ccc(Cl)cc12 (centres unmarked) [Compound 7f]	–	–	–	7.82	7.98	9.05	–	–
COP(=O)(c1cccc(C(C)C)c1)c1c(C(N)=O)[nH]c2ccc(Cl)cc12 (centres unmarked) [Compound 7g]	–	–	–	8.11	8.06	8.60	–	–
COP(=O)(c1cccc(CF)c1)c1c(C(N)=O)[nH]c2ccc(Cl)cc12 (centres unmarked) [Compound 7h]	–	–	–	8.60	8.21	9.05	–	–
COP(=O)(c1cccc(-c2ccccc2)c1)c1c(C(N)=O)[nH]c2ccc(Cl)cc12 (centres unmarked) [Compound 7i]	–	–	–	6.42	6.40	8.00	–	–
COP(=O)(c1cc(F)cc(Br)c1)c1c(C(N)=O)[nH]c2ccc(Cl)cc12 (centres unmarked) [Compound 7j]	–	–	–	8.39	8.52	8.74	–	–
COc1cccc(P(=O)(OC)c2c(C(N)=O)[nH]c3ccc(Cl)cc23)c1 (centres unmarked) [Compound 7l]	–	–	–	7.66	7.41	9.22	–	–
COP(=O)(c1cc(C)cc(C)c1)c1c(C(=O)NCc2ccc(F)cc2F)[nH]c2ccc(Cl)cc12 (centres unmarked) [Compound 18aaj]	–	–	–	7.38	–	–	7.59	–
COc1cccc(P(=O)(OC)c2c(C(=O)NCc3ccncc3)[nH]c3ccc(Cl)cc23)c1 (centres unmarked) [Compound 18av]	–	–	–	8.62	–	9.15	8.85	9.10
COP(=O)(c1c(C(N)=O)[nH]c2ccc(Cl)cc12)C1CCCCC1 (centres unmarked) [Compound 57a]	–	–	–	6.79	–	8.77	–	–
